In US11571418B2, “Platinum compounds that inhibit constitutive STAT3 signaling and induce cell cycle arrest and apoptosis of malignant cells” (H. LEE MOFFITT CANCER CENTER AND RESEARCH INSTITUTE, INC., priority 2011, dated 2023):

Key:
NFκB-Luc = assay: NFκB promoter-driven luciferase reporter assay; assay type: cell-based; conditions: transient transfection in mouse fibroblasts
Method: FIGS. 3A-3D. Inhibition of Stat3-mediated gene expression by PLATINUM-401. (FIG. 3A) and (FIG. 3B) v-Src-transformed mouse fibroblasts that stably express Stat3-dependent (NIH3T3/v-Src/pLucTKS3) and Stat3-independent (NIH3T3/v-Src/pRLSRE) luciferase reporters or β-galactosidase (β-gal), as well as normal mouse fibroblast (NIH3T3) transiently transfected with pLucTKS3, pGL2-VEGF-Luc, NFkB-Luc or pLucSRE together with or without v-Src were treated with or without PLATINUM-401 for 48 h. Cytosolic extracts were then prepared from cells for luciferase and […] activities measurements. […]
Cell proliferation and TUNEL assays—Proliferating cells were first treated with or without PLATINUM-401 for up to 48 h. A portion of cells were harvested for BrdU incorporation following the manufacturer's (BD Biosciences Pharmingen, San Diego, Calif.) instructions and analyzed by flow cytometry. Harvested cells were also analyzed for apoptosis via detection of TdT-mediated dUTP nick-end labeling (TUNEL) assay using Apoptosis Detection Systems Fluorescein according to the manufacturer's (Roche, Indianapolis, Ind.) instructions. […]
To further investigate the activities of PLATINUM-401, the inventors treated malignant cells and measured effects on Stat3 signaling. […]

[1] = tested on: constitutively-active Stat3 in NIH3T3/v-Src; assay: Constitutive Stat3 DNA-binding activity in treated NIH3T3/v-Src cells (EMSA of nuclear extracts); assay type: cell-based, mouse
Method: FIGS. 3A-3D. Inhibition of Stat3-mediated gene expression by PLATINUM-401. (FIG. 3A) and (FIG. 3B) v-Src-transformed mouse fibroblasts that stably express Stat3-dependent (NIH3T3/v-Src/pLucTKS3) and Stat3-independent (NIH3T3/v-Src/pRLSRE) luciferase reporters or β-galactosidase (β-gal), as well as normal mouse fibroblast (NIH3T3) transiently transfected with pLucTKS3, pGL2-VEGF-Luc, NFkB-Luc or pLucSRE together with or without v-Src were treated with or without PLATINUM-401 for 48 h. Cytosolic extracts were then prepared from cells for luciferase and […] activities measurements. Values are the means and S.D. of three to five independent assays; (FIG. 3C) and (FIG. 3D) Nuclear extracts or whole cell lysates were prepared from IL-6-stimulated normal mouse fibroblasts (NIH3T3) or their v-Src-transformed counterpart (NIH3T3/v-Src) that are treated with or without PLATINUM-401 for different times. Samples of equal total proteins were then subjected to in vitro DNA-binding activity and EMSA analysis or for SDS-PAGE and Western blot analysis for phosphorylated and total Stat3.
Nuclear extract preparation and gel shift assays—Nuclear extract preparation from NIH3T3 stimulated by rhIL-6, NIH3T3/hEGFR stimulated by rhEGF, v-Src-transformed fibroblasts (NIH3T3/v-Src) or tumor cell lines and electrophoretic mobility shift assay were carried out as previously described (Turkson et al., 1998; Garcia et al., 1997; Yu et al., 1995). The ^32P-labeled oligonucleotide probes used are hSIE (high affinity sis-inducible element from the c-fos gene, m67 variant, 5′-[…]) (SEQ ID NO:1) that binds Stat1 and Stat3 (Garcia et al., 1997; Wagner et al., 1990) and MGFe (mammary gland factor element from the bovine β-casein gene promoter, 5′-AGATTTCTAGGAATTCAA) (SEQ ID NO:2) for Stat1 and Stat5 binding (49,50). Except where indicated, inhibitor compound was pre-incubated with the nuclear extract for 30 min at room temperature prior to incubation with radiolabeled probe.
To further investigate the activities of PLATINUM-401, the inventors treated malignant cells and measured effects on Stat3 signaling. […] Taken together with the results in FIG. 1, these findings indicate that PLATINUM-401 blocks the binding of activated Stat3 to its responsive elements in the promoters of target genes. Moreover, in a time- and dose-dependent manner, PLATINUM-401 inhibits the constitutive or ligand-induced activation of Stat3 DNA-binding activity (FIG. 3C), as well as tyrosine phosphorylation in mouse fibroblasts (FIG. 3D and data not shown). […] Changes in Stat3 protein levels were minimal. […] Results together indicate that at the 5-10 μM PLATINUM-401 that inhibits intracellular Stat3 signaling, there is no observable non-specific effect on non-Stat3 related pathways investigated here.
To further elucidate the interaction between Stat3 and PLATINUM-401, v-Src-transformed mouse fibroblasts were transfected with Stat3 protein and then used to investigate PLATINUM-401 activity. The transfection of wild-type Stat3 into the v-Src-transformed fibroblasts results in higher Stat3 DNA-binding activity over that of parentals, as measured by in vitro DNA-binding activity and EMSA analysis (FIG. 7C, left panel, lanes 3 and 6 versus 1 and 2). This is due to the increased expression of Stat3 protein and the consequent phosphorylation by oncogenic Src tyrosine kinase that is present in these cells.

inactive Stat1 monomer = molecular target: T1, inactive Stat1 monomer (Homo sapiens, UniProt P42224); assay: Inactive STAT monomer added to activated Stat3 before EMSA (titration of compound); assay type: binding; conditions: monomer added to activated Stat3, pre-incubated with compound 30 min
T1 construct: made in house; host or cells: Sf-9 insect cells infected with baculovirus
T1 sequence (P42224 whole entry): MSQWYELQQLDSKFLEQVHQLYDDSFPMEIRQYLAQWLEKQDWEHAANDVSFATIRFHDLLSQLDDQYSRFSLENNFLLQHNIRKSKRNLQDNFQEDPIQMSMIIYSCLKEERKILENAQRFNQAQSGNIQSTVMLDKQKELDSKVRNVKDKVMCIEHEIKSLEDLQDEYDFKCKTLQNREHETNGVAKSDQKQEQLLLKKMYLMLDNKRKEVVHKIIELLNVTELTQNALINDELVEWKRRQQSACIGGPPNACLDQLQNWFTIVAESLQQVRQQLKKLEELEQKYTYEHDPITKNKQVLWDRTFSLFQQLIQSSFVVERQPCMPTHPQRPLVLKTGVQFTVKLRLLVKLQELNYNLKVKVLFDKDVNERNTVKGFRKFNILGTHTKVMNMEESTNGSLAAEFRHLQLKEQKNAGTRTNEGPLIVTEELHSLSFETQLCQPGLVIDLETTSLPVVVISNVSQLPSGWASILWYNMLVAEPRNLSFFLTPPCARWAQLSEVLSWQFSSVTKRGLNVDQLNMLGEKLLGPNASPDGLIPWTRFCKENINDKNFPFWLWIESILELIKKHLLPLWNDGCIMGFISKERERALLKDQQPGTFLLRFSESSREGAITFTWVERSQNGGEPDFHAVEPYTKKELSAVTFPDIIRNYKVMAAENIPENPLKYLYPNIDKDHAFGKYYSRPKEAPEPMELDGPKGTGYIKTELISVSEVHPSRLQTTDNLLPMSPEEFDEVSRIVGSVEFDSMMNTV

Q: Which results are given for CC(O)CN1CCN(CC(C)O)CC1 (stereo not shown) [PLATINUM-401]?
A: induction of NFκB promoter-driven luciferase reporter activity (NFκB-Luc): no inhibitory effects; constitutively-active Stat3 DNA-binding activity, cells transfected with wild-type Stat3 ([1]; NIH3T3/v-Src transfected with exogenous wild-type Stat3, 5 μM, 36 h): no significant reduction; time required for significant inhibition of constitutively-active Stat3 ([1]; NIH3T3/v-Src, data not shown): > 12 h; concentration that inhibits intracellular Stat3 signaling ([1]; mouse fibroblasts): 5 to 10 µM; constitutively-active Stat3 DNA-binding activity, mock-transfected cells ([1]; parental, mock-transfected NIH3T3/v-Src, 5 μM, 36 h): significant reduction; constitutive activation of Stat3 DNA-binding activity ([1]; time- and dose-dependent): inhibits; interaction with inactive Stat1 monomer (inactive Stat1 monomer): also interacts
